Assay results published in patent publication US8440794B2, “Peptide sequences, their branched form and use thereof for antimicrobial applications” (Universita' Degli Studi di Siena, priority 2008, dated 2013).
Values after ≈ are worked out from the molar mass of the structure shown. Where a SMILES comes first, the peptide text is derived from it. Bridges are numbered along the chain shown (N, C = ends). Roman numbers before positions name the chains, in order. [ ]: non-standard residue; d: D form. βAla = NCCC(=O)O

Legend:
[1] = tested on: LPS; experiment: Limulus amebocyte lysate test (E-toxate), LPS neutralization; conditions: not shown
[2] = tested on: P. aeruginosa ATCC 27853; experiment: Bacterial load of P. aeruginosa in a mouse sepsis model; assay type: in vivo; conditions: P. aeruginosa 1 × 10^7 CFU/mouse ip, M33 25 mg/Kg
Procedure: After 40 hours, all sampled body sites were apparently clear of bacteria (Table 2).

[3] = tested on: P. aeruginosa and K. pneumoniae; assay type: cell-based; conditions: 24 h
Procedure: (§1) M33, […], M35 and M36 MICs were determined against strains of several bacterial species, including Gram-negative pathogens and also Staphylococcus aureus (Table 1). MICs in the micromolar range were observed against several Gram-negatives including Pseudomonas aeruginosa, Acinetobacter baumannii and most Enterobacteriaceae, with the exception of Proteus mirabilis, Serratia marcescens and Burkholderia cepacia. Activity of peptides was retained against MDR strains with various resistance mechanisms (such as extended-spectrum beta-lactamases and carbapenemases), including MDR P. aeruginosa strains from CF patients. Antimicrobial profile of M33, […] and potency were overall similar to those of polymyxin B, although M33, M34, M35 and M36 also appeared to have some activity against S. aureus (Table 1).
Then it was examined for inhibiting LPS-induced TNF-α, secretion by Raw 264.7 macrophages.

[4] = tested on: A. baumannii MR157; assay type: cell-based, Acinetobacter baumannii; conditions: MR157, 24 h
Procedure: as §1

[5] = tested on: A. baumannii RUH 875; assay type: cell-based, Acinetobacter baumannii; conditions: RUH 875, 24 h
Procedure: as §1

[6] = tested on: E. coli TG1; experiment: Antibacterial activity against E. coli TG1 cells (CFU count after 75 min incubation, FIG. 1A); assay type: cell-based; conditions: 75 minutes at 37° C., CFU counted
Excerpt: FIG. 1. A, Antibacterial activity against E. coli TG1 cells. Comparison of the following tetra-branched peptides: M6 batch 1 synthesis (triangles), M6 batch 2 synthesis (squares), M6 batch 3 synthesis (white circles), which contain a mixture of Gln and pyroGlu (in unknown percentages) as first amino-acid, […] (asterisks), where the first amino-acid is 100% pyroGlu, and M33 (black circles), in which the first Gln was deleted. […] SD derived by means of three different experiments. Many different syntheses of M33 (and also of M34, M35 and M36, here not shown) gave perfectly overlapping results without any wavering outcome. B, Mass spectrometry analysis of tetra-branched peptide M6 crude mixture. Calculated molecular mass of M6 was 5195 Da. Two main peaks are present, one at 5197 Da corresponding to unmodified M6 and one at 5179 Da that corresponds to the secondary product with one pyroGlu in first position in the place of one of the four Gln. C, Mass spectrometry analysis of tetrabranched peptide M33 after 24 hours of incubation in serum. The peptide appears as a single peak at the expected molecular mass (4683 Da).
A single colony of E. coli TG1 strain was cultured in 2×TY medium to 0.2 OD^600. […] The following day colonies (CFU/ml) grown on plates were counted.

[7] = tested on: Escherichia coli ATCC 25922; assay type: cell-based; conditions: ATCC 25922, 24 h
[8] = tested on: P. aeruginosa ATCC 27853; experiment: In vivo antibacterial activity, mice infected ip with lethal amount of P. aeruginosa ATCC 27853; design: species or system Balb-c mice; conditions: for Animals protected from death: P. aeruginosa ATCC 27853 1×10^7 CFU ip
Procedure: (§2) FIG. 4. In vivo antibacterial activity of tetra-branched M33 peptide. A, Balb-c mice (20 g) were intra-peritoneally injected with a lethal amount of E. coli TG1 cells (1.5×10^9 CFU). Continuous line (Ctr) indicates mice only injected ip with bacteria and no M33. Broken line indicates mice injected ip with bacteria and a single injection of M33 peptide 10 mg/Kg 30 minutes later. B, Balb-c mice (20 g) were intra-peritoneally injected with a lethal amount of P. aeruginosa cells (ATCC 27853 1×10^7 CFU). Continuous line (Ctr) indicates mice which only received bacteria; other groups received bacteria and a single dose of M33 30 minutes later (see figure for doses of M33). C, Balb-c mice (20 g) were intra-peritoneally injected with a lethal amount of P. aeruginosa cells (multi drug resistant VR 147 clinical isolate, 1.5×10^7 CFU). Continuous line (Ctr) indicates mice which only received bacteria; broken line indicates mice which received bacteria and a single dose of M33 25 mg/Kg. D, Balb-c mice (20 g) were intra-peritoneally injected with a lethal amount of P. aeruginosa cells (ATCC 27853 1×10^7 CFU). Continuous line (Ctr) indicates mice which only received bacteria; long broken line, mice receiving bacteria and two injections of M33 (5 mg/Kg×2), 30 minutes and 12 hours after bacteria; short broken line, mice receiving bacteria and three injections of M33 (5 mg/Kg×3), 30 minutes, 12 and 24 hours after bacteria. P<0.05.
Tetra-branched M33 peptide was analysed for its antibacterial activity in mice infected with lethal amounts of bacteria. Two different bacterial species were used, Escherichia coli and Pseudomonas aeruginosa. […] Balb-c mice were infected with the LD100 of bacteria and treated 30 minutes later with the peptide by ip administration.

[9] = tested on: P. aeruginosa VR-143/97; experiment: In vivo antibacterial activity, mice infected ip with lethal amount of MDR P. aeruginosa VR-143/97; design: species or system Balb-c mice; conditions: MDR P. aeruginosa VR-143/97 1.5×10^7 CFU ip; single dose 25 mg/Kg
Procedure: as §2, with “Continuous line (Ctr) indicates mice which only received bacteria; long broken line, mice receiving bacteria and two injections of M33 (5 mg/Kg×2), 30 minutes and 12 hours after bacteria; short broken line, mice receiving bacteria and three injections of M33 (5 mg/Kg×3), 30 minutes, 12 and 24 hours after bacteria. P<0.05.” left out
(§3) Tetra-branched M33 peptide was analysed for its antibacterial activity in mice infected with lethal amounts of bacteria. […]

[10] = tested on: E. coli TG1; experiment: In vivo antibacterial activity, mice infected ip with lethal amount of E. coli TG1; design: species or system Balb-c mice; conditions: E. coli TG1 1.5×10^9 CFU ip; single dose 10 mg/Kg ip 30 minutes later
Procedure: as §2, with “Continuous line (Ctr) indicates mice which only received bacteria; long broken line, mice receiving bacteria and two injections of M33 (5 mg/Kg×2), 30 minutes and 12 hours after bacteria; short broken line, mice receiving bacteria and three injections of M33 (5 mg/Kg×3), 30 minutes, 12 and 24 hours after bacteria. P<0.05.” left out
as §3

[11] = sacrificed 18 h after infection
[12] = sacrificed 40 h after infection

CC[C@H](C)[C@H](NC(=O)[C@H](CCCCN)NC(=O)[C@@H](N)CCCCN)C(=O)N[C@@H](CCCNC(=N)N)C(=O)N[C@H](C(=O)N[C@@H](CCCNC(=N)N)C(=O)N[C@@H](CC(C)C)C(=O)N[C@@H](CO)C(=O)N[C@@H](C)C(=O)NCCCC[C@H](NC(=O)[C@H](C)NC(=O)[C@H](CO)NC(=O)[C@H](CC(C)C)NC(=O)[C@H](CCCNC(=N)N)NC(=O)[C@@H](NC(=O)[C@H](CCCNC(=N)N)NC(=O)[C@@H](NC(=O)[C@H](CCCCN)NC(=O)[C@@H](N)CCCCN)[C@@H](C)CC)C(C)C)C(=O)NCCCC[C@H](NC(=O)[C@H](CCCCNC(=O)[C@H](C)NC(=O)[C@H](CO)NC(=O)[C@H](CC(C)C)NC(=O)[C@H](CCCNC(=N)N)NC(=O)[C@@H](NC(=O)[C@H](CCCNC(=N)N)NC(=O)[C@@H](NC(=O)[C@H](CCCCN)NC(=O)[C@@H](N)CCCCN)[C@@H](C)CC)C(C)C)NC(=O)[C@H](C)NC(=O)[C@H](CO)NC(=O)[C@H](CC(C)C)NC(=O)[C@H](CCCNC(=N)N)NC(=O)[C@@H](NC(=O)[C@H](CCCNC(=N)N)NC(=O)[C@@H](NC(=O)[C@H](CCCCN)NC(=O)[C@@H](N)CCCCN)[C@@H](C)CC)C(C)C)C(=O)NCCC(=O)O)C(C)C [M33, KKIRVRLSA] (I: H-KKIRVRLSAKK[βAla]-OH / II: H-KKIRVRLSAK / III: H-KKIRVRLSA / IV: H-KKIRVRLSA; amide I:10-IV:C, I:11-II:C, II:10-III:C; N-terminus assumed)
Neutralization of sample gelification due to LPS [1]: ability to neutralize sample gelification due to LPS
Bacterial count (mean ± SD) in Blood [2, 11]: <1 × 10^2 CFU/ml
Bacterial count (mean ± SD) in Liver [2, 11]: 3 × 10^5 ± 6.7 × 10^5 CFU/organ
Bacterial count (mean ± SD) in Spleen [2, 11]: 2.4 × 10^4 ± 5.3 × 10^4 CFU/organ
Bacterial count (mean ± SD) in Blood [2, 12]: <1 × 10^2 CFU/ml
Bacterial count (mean ± SD) in Liver [2, 12]: <1 × 10^2 CFU/organ
Bacterial count (mean ± SD) in Peritoneum [2, 12]: <1 × 10^2 CFU/ml
Bacterial count (mean ± SD) in Spleen [2, 12]: <1 × 10^2 CFU/organ
MIC [3]: 1.5 to 3 µM
MIC [4]: 3 µM (≈ 14 µg/mL)
MIC [5]: 3 µM (≈ 14 µg/mL)
Antibacterial activity against E. coli TG1 cells (comparison of tetra-branched peptides, FIG. 1A) [6]: improved peptide activity
MIC [7]: 1.5 µM (≈ 7.02 µg/mL)
Animals protected from death ([8]; single dose 6.5 mg/Kg ip 30 minutes later): did not protect them from death
Animals protected from death ([8]; single dose 12.5 mg/Kg ip 30 minutes later): 25%
Animals protected from death ([8]; single dose 25 mg/Kg ip 30 minutes later): 75%
Survival beyond seven days after infection ([8]; P. aeruginosa ATCC 27853, three doses of 5 mg/Kg (30 min, 12 h and 24 h after infection)): 100%
Survival after multiple doses ([8]; P. aeruginosa ATCC 27853, two doses of 5 mg/Kg (30 min and 12 h after infection)): death was delayed
Animals protected [9]: 100%
Animals protected from signs of sepsis and death (seven-day survival) [10]: 100%
